Test results taken from PMC3953198 (Journal of medicinal chemistry, 2013).

How the values were obtained:
EphA2 receptor = EphA2 receptor (Mus musculus, UniProt Q03145); format: binding; conditions: for activity in the binding assay (in words): EphA2-ephrin-A1 ELISA
PC3 cells = test: LDH assay; format: cell-based, human; conditions: 2 h, at the tested concentrations

Chain of EphA2 receptor (Q03145 26-538 limits assumed): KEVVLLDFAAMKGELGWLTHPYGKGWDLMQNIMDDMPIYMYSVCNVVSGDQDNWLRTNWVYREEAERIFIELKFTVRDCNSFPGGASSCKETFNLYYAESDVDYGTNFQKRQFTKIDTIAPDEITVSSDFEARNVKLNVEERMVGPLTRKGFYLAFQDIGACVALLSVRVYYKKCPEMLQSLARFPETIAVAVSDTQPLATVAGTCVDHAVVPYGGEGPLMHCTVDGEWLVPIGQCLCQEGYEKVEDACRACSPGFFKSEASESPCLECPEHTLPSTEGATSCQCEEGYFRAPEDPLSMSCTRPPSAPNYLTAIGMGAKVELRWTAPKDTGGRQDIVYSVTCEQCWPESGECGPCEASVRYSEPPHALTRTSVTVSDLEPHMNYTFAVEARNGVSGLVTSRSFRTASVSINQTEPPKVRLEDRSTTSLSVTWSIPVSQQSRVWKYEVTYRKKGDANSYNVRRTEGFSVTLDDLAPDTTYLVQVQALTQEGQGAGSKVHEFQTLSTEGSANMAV

SMILES	IC50 (EphA2 receptor) [µM]	activity in the binding assay (in words) (EphA2 receptor)	further results
C[C@H](CCC(=O)N[C@@H](CC(=O)O)C(=O)O)[C@H]1CC[C@H]2[C@@H]3CC[C@@H]4C[C@H](O)CC[C@]4(C)[C@H]3CC[C@]12C [Compound 12]	> 316	inactive	–
C[C@H](CCC(=O)N[C@@H](Cc1c[nH]c2ccccc12)C(=O)O)[C@H]1CC[C@H]2[C@@H]3CC[C@@H]4C[C@H](O)CC[C@]4(C)[C@H]3CC[C@]12C [Compound 20]	–	–	cytotoxic effect (LDH assay) (PC3 cells): nor had cytotoxic effect
C[C@H](CCC(=O)N[C@H](CC(=O)O)C(=O)O)[C@H]1CC[C@H]2[C@@H]3CC[C@@H]4C[C@H](O)CC[C@]4(C)[C@H]3CC[C@]12C [Compound 13]	> 316	inactive	–
C[C@H](CCC(=O)N[C@@H](CC(N)=O)C(=O)O)[C@H]1CC[C@H]2[C@@H]3CC[C@@H]4C[C@H](O)CC[C@]4(C)[C@H]3CC[C@]12C [Compound 10]	> 316	–	–
CC(=O)CNC(=O)CC[C@@H](C)[C@H]1CC[C@H]2[C@@H]3CC[C@@H]4C[C@H](O)CC[C@]4(C)[C@H]3CC[C@]12C [Compound 3]	> 316	inactive	–
C[C@H](CCC(=O)NCC(=O)O)[C@H]1CC[C@H]2[C@@H]3CC[C@@H]4C[C@H](O)CC[C@]4(C)[C@H]3CC[C@]12C [Compound 2, glycolithocholic acid]	–	–	reversibility of binding (EphA2 receptor; 100 μM compound for 1 hour, with or without washing before 50 ng/mL ephrin-A1-Fc): reversible binder; nature of the antagonism (EphA2 receptor; from Schild plot): competitive binding
C[C@H](CCC(=O)N[C@H](CC(N)=O)C(=O)O)[C@H]1CC[C@H]2[C@@H]3CC[C@@H]4C[C@H](O)CC[C@]4(C)[C@H]3CC[C@]12C [Compound 11]	> 316	–	–
